These are literature values, as cited in patent US9687445B2, “Oral film containing opiate enteric-release beads” (LTS Lohmann Therapie-Systeme AG, priority 2012, dated 2017).

Each structure is given as a SMILES string.

With `C=CCN1CC[C@]23c4c5ccc(O)c4O[C@H]2C(=O)CC[C@@]3(O)[C@H]1C5` [naloxone], the pKa entry is on record as “about 7.94”.
